Experimental findings from patent publication US20050042213A1, “Methods and pharmaceutical compositions for modulating heparanase activation and uses thereof” (InSight Biopharmaceuticals Ltd., priority 2003, published 2005) are described below.

For the assay, the target named is T1, pro-heparanase (H60) (Homo sapiens, UniProt Q9Y251, K307R).
T1 sequence (Q9Y251 36-543 K307R): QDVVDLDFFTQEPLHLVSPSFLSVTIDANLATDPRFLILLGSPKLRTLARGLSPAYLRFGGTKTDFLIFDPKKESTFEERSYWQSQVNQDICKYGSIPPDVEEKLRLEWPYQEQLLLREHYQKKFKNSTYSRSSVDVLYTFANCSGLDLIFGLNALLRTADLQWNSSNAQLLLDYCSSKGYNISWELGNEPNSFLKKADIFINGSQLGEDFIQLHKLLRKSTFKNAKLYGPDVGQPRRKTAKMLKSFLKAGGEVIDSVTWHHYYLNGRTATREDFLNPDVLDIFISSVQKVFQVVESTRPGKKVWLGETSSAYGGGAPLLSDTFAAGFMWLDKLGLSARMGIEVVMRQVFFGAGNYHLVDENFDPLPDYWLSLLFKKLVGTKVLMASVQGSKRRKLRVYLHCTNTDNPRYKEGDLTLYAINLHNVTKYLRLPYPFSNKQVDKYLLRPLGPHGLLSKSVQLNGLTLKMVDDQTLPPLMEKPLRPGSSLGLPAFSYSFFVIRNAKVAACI
Put plainly: Circular dichroism spectrometry of pro-heparanase. The settings on record: data not shown. Here is the method: Circular Dichroism spectrometry—Circular Dichroism spectra were recorded using a JASCO 500 spetropolarimeter. Far Ultraviolet measurements (260-200 nm) were performed in a 0.1 mm demountable cuvette at 25° C., scanning at a rate of 10 nm/min. Pro-heparanase was assayed at a concentration of 0.72 mg/ml in 20 mM sodium phosphate buffer pH 6.8 supplemented with 300 mM NaCl. Effect of heparin on pro-heparanase spectra was determined at a concentration of 100 μM, and the inhibitor was added at a concentration of 15 μM. Base-line recordings were performed in the presence and absence of heparin to correct the pro-heparanase spectra.
In general terms: Circular dichroism is the unequal absorption of left and right circularly polarised light.

As to `O=C(O)CCCN1C(=O)C(=Cc2ccc(-c3ccc([N+](=O)[O-])cc3)o2)SC1=S` [Compound 5], the “change in conformation of H60 induced by heparin” value was “prevents the change in conformation”.
